What was measured:
[1] = tested on: Huh 7 (human hepatome-cell line); experiment: Cytotoxicity: metabolic activity, EZ4U-Assay, Huh 7; type: cell-based; settings: Huh7 cells; 48 hours after addition; inhibitors up to 1 mM (so in the source); cycloheximide 2.5 μg/ml, camptothecin 0.2 μg/ml
Experimental: (§1) Huh 7 (human hepatome-cell line) and CaCo2 (human colon carcinoma-cell line) were seeded to 96 well plates in Dulbecco's Modified Eagle's Medium (DMEM)/10% fetal calf serum (FCS) and cultivated. The method is known to the skilled person.
(§2) […] The determination of the proliferation was carried out using the Cell Proliferation ELISA, BrdU (Roche 11 647 229 001): 24 hours after incubation of the cells with the inhibitor BrdU was added. The colorimetric development of the test was made after further 48 hours according to manufacturer's information. The extinction was measured at 450 nm. For determination of the metabolic activity using the EZ4U-Assay (Biomedica B1-5000) the tetrazolium substrate was added to the cells 48 hours after addition of the inhibitor. The capacity for reaction of the cells was measured every hour over a period of 4 hours at 450 nm against a reference filter of 630 nm. DMEM without inhibitor was added as reference in both experiments, as positive control cycloheximide (2.5 μg/ml) and camptothecin (0.2 μg/ml).

[2] = tested on: CaCo2 (human colon carcinoma-cell line); experiment: Cytotoxicity: proliferation, Cell Proliferation ELISA, BrdU, CaCo2; type: cell-based; settings: CaCo2 cells; inhibitors up to highest measured concentration of 1 mM (so in the source); cycloheximide 2.5 μg/ml, camptothecin 0.2 μg/ml
Experimental: as §1, §2

[3] = tested on: CaCo2 (human colon carcinoma-cell line); experiment: Cytotoxicity: metabolic activity, EZ4U-Assay, CaCo2; type: cell-based; settings: CaCo2 cells; 48 hours after addition; inhibitors up to 1 mM (so in the source); cycloheximide 2.5 μg/ml, camptothecin 0.2 μg/ml
Experimental: as §1
After one hour the inhibitors A63 (ZED1227), A29 (ZED1098) and A61 (ZED1219) were added in the concentrations 0.1 μM to 1 μM. The determination of the proliferation was carried out using the Cell Proliferation ELISA, BrdU (Roche 11 647 229 001): 24 hours after incubation of the cells with the inhibitor BrdU was added. The colorimetric development of the test was made after further 48 hours according to manufacturer's information. The extinction was measured at 450 nm. For determination of the metabolic activity using the EZ4U-Assay (Biomedica B1-5000) the tetrazolium substrate was added to the cells 48 hours after addition of the inhibitor. The capacity for reaction of the cells was measured every hour over a period of 4 hours at 450 nm against a reference filter of 630 nm. DMEM without inhibitor was added as reference in both experiments, as positive control cycloheximide (2.5 μg/ml) and camptothecin (0.2 μg/ml).

[4] = tested on: Huh 7 (human hepatome-cell line); experiment: Cytotoxicity: proliferation, Cell Proliferation ELISA, BrdU, Huh 7; type: cell-based; settings: Huh7 cells; inhibitors up to highest measured concentration of 1 mM (so in the source); cycloheximide 2.5 μg/ml, camptothecin 0.2 μg/ml
Experimental: as §1, §2

[5] = biological target: T1, His tagged recombinant human tissue transglutaminase (His6-rh-TG2) (Homo sapiens, UniProt P21980); experiment: Inactivation of human tissue transglutaminase, fluorescence assay with Abz-APE(CAD-DNP)QEA-OH; type: biochemical; settings: substrate Abz-APE(CAD-DNP)QEA-OH, 37° C., pH=7.5
T1 construct: purchased Zedira T002
T1 sequence (P21980 1-687): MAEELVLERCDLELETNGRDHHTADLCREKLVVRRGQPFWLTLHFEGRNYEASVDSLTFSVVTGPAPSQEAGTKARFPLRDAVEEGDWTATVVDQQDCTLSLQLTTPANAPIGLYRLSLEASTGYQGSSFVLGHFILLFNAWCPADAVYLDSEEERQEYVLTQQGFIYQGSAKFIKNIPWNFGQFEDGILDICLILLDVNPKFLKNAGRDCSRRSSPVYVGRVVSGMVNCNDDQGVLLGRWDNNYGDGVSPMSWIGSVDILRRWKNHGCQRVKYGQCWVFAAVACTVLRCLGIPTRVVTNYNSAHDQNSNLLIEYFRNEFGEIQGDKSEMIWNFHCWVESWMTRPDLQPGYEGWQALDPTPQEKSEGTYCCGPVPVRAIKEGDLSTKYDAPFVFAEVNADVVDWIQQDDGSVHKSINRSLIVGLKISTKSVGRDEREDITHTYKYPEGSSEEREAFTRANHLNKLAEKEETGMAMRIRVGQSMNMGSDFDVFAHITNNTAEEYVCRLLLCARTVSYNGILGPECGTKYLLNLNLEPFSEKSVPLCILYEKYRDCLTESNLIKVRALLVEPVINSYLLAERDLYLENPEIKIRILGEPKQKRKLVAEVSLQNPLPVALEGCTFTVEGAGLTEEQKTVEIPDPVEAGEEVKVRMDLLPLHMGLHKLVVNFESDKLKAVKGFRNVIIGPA
Experimental: General Method for Inactivation of Human Tissue Transglutaminase
250 μg lyophilized His tagged recombinant human tissue transglutaminase (His6-rh-TG2, Zedira product T002) are reconstituted by adding 150 μl water (resulting buffer 50 mM NaH2PO4, 150 mM NaCl, pH=8.0).
A 10 mM inhibitor stock solution in DMSO is prepared and is diluted with buffer (50 mM Tris-HCl, 10 mM CaCl2, 5 mM DTT, pH=7.5) each to the twentyfold of the concentration desired in the preparation (but at least 1/50 dilution resulting in a 2% DMSO concentration).
900 μl of an assay-solution consisting of 55.56 mM Tris, 11.11 mM CaCl2, 0.11% PEG8000, 5.56 mM DTT, 5.56 mM glycine methyl ester and 50 μM Abz-APE(CAD-DNP)QEA-OH, (Zedira product A102; patent No.: EP 1781807B1), pH=7.5 are added to a cuvette and heated in a measuring cell of a spectrophotometer to 37° C. 50 μl of the particular inhibitor solution are added to this solution (resulting in a concentration of less than 0.2% DMSO in the mixture).
7 μl of the transglutaminase solution reconstituted above are diluted with 51 μl buffer (50 mM Tris, 100 mM NaCl, 5 mM DTT, pH=7.5). 50 μl of this enzyme solution (10 μg His6-rhTG2) are added to the assay-solution containing the particular inhibitor concentration. It is incubated 5 min at 37° C. before measuring starts (λexc=313 nm and λem=418 nm, t=15 to 30 min).
The evaluation of the resulting enzyme activity is done using the slope of the straight line obtained by the increase in fluorescence.
To determine the non-inhibited enzyme activity, DMSO instead of inhibitor stock solution is used. IC50 values are determined by plotting the resulting enzyme activity against the logarithm of the inhibitor concentration. IC50 is defined as the concentration of inhibitor resulting in 50% of enzyme activity.

Row | SMILES | IC50 [5] [nM] | also measured
1 | CC[C@@]1(O)C(=O)OCc2c1cc1n(c2=O)Cc2cc3ccccc3nc2-1 [camptothecin, reference compound] | – | effect on metabolic activity (EZ4U) [1]: significant reduction; effect on proliferation (BrdU) [2]: significant reduction; effect on metabolic activity (EZ4U) [3]: significant reduction; effect on proliferation (BrdU) [4]: significant reduction
2 | CCOC(=O)/C=C/CC[C@H](NC(=O)c1cc(C(F)(F)F)cc(C(F)(F)F)c1)C(=O)Nc1cccn(CC(=O)NCCC(C)C)c1=O [A17, (S,E)-Ethyl 6-(3,5-bis(trifluoromethyl)benzamido)-7-(1-(2-(isopentylamino)-2-oxoethyl)-2-oxo-1,2-dihydropyridin-3-ylamino)-7-oxohept-2-enoate] | 63 | –
3 | CCOC(=O)/C=C/CC[C@H](NC(=O)CCC(=O)O)C(=O)Nc1cccn(CC(=O)NCc2ccc(C(F)(F)F)cc2)c1=O [A37, (S,E)-4-(7-Ethoxy-1,7-dioxo-1-(2-oxo-1-(2-oxo-2-(4-(trifluoromethyl)benzylamino)ethyl)-1,2-dihydropyridin-3-ylamino)hept-5-en-2-ylamino)-4-oxobutanoic acid] | 340 | –
4 | CCOC(=O)/C=C/CC[C@H](NC(=O)OCc1ccccc1)C(=O)Nc1ccc(C)n(CC(=O)NCCC(C)C)c1=O [A2, (S,E)-Ethyl 6-(benzyloxycarbonylamino)-7-(1-(2-(isopentylamino)-2-oxoethyl)-6-methyl-2-oxo-1,2-dihydropyridin-3-ylamino)-7-oxohept-2-enoate] | 100 | –
5 | CC(=O)N[C@@H](CC/C=C/C(=O)OC(C)C)C(=O)Nc1cccn(CC(=O)NCCC(C)C)c1=O [A6, (S,E)-isopropyl 6-acetamido-7-(1-(2-(isopentylamino)-2-oxoethyl)-2-oxo-1,2-dihydropyridin-3-ylamino)-7-oxohept-2-enoate] | 532 | –
6 | CCOC(=O)/C=C/CC[C@H](NC(C)=O)C(=O)Nc1cccn(CC(=O)NCCN(C)C)c1=O [A27, (S,E)-Ethyl 6-acetamido-7-(1-(2-(2-(dimethylamino)ethylamino)-2-oxoethyl)-2-oxo-1,2-dihydropyridin-3-ylamino)-7-oxohept-2-enoate] | 5200 | –
7 | CCOC(=O)/C=C/CC[C@H](NC(=O)CCC(=O)O)C(=O)Nc1cccn(CC(=O)N[C@@H](CC(C)(C)C)C(=O)OC)c1=O [A41, 4-((S,E)-7-Ethoxy-1-(1-(2-((S)-1-methoxy-4,4-dimethyl-1-oxopentan-2-ylamino)-2-oxoethyl)-2-oxo-1,2-dihydropyridin-3-ylamino)-1,7-dioxohept-5-en-2-ylamino)-4-oxobutanoic acid] | 166 | –
8 | CCOC(=O)/C=C/CC[C@H](NC(=O)CCC(=O)O)C(=O)Nc1cccn(CC(=O)N[C@@H](CC(C)C)C(=O)OC)c1=O [A32, 4-((S,E)-7-Ethoxy-1-(1-(2-((S)-1-methoxy-4-methyl-1-oxopentan-2-ylamino)-2-oxoethyl)-2-oxo-1,2-dihydropyridin-3-ylamino)-1,7-dioxohept-5-en-2-ylamino)-4-oxobutanoic acid] | 194 | –
9 | CCOC(=O)/C=C/CC[C@H](NS(=O)(=O)c1ccccc1)C(=O)Nc1cccn(CC(=O)NCCC(C)C)c1=O [A22, (S,E)-Ethyl 7-(1-(2-(isopentylamino)-2-oxoethyl)-2-oxo-1,2-dihydropyridin-3-ylamino)-7-oxo-6-(phenylsulfonamido)hept-2-enoate] | 133 | –
10 | CC(=O)N[C@@H](CC/C=C/C(=O)OCc1ccccc1)C(=O)Nc1cccn(CC(=O)NCCC(C)C)c1=O [A78, (S,E)-Benzyl 6-acetamido-7-(1-(2-(isopentylamino)-2-oxoethyl)-2-oxo-1,2-dihydropyridin-3-ylamino)-7-oxohept-2-enoate] | 627 | –
11 | CCOC(=O)/C=C/CC[C@H](NC(=O)CCC(=O)O)C(=O)Nc1cccn(CC(=O)NCCC(CC)CC)c1=O [A43, (S,E)-4-(7-Ethoxy-1-(1-(2-(3-ethylpentylamino)-2-oxoethyl)-2-oxo-1,2-dihydropyridin-3-ylamino)-1,7-dioxohept-5-en-2-ylamino)-4-oxobutanoic acid] | 145 | –
12 | CC(=O)N[C@@H](CC/C=C/S(C)(=O)=O)C(=O)Nc1cccn(CC(=O)NCCC(C)C)c1=O [A77, (S,E)-2-acetamido-N-(1-(2-(isopentylamino)-2-oxoethyl)-2-oxo-1,2-dihydropyridin-3-yl)-6-(methylsulfonyl)hex-5-enamide] | 469 | –
13 | CCOC(=O)/C=C/CC[C@H](NC(=O)CCC(=O)O)C(=O)Nc1cccn(CC(=O)NCCN(CC)CC)c1=O [A26, (S,E)-4-(1-(1-(2-(2-(Diethylamino)ethylamino)-2-oxoethyl)-2-oxo-1,2-dihydropyridin-3-ylamino)-7-ethoxy-1,7-dioxohept-5-en-2-ylamino)-4-oxobutanoic acid] | 5400 | –
14 | CCOC(=O)/C=C/CC[C@H](NC(=O)c1ncsc1C)C(=O)Nc1cccn(CC(=O)NCCC(C)C)c1=O [A15, (S,E)-Ethyl 7-(1-(2-(isopentylamino)-2-oxoethyl)-2-oxo-1,2-dihydropyridin-3-ylamino)-6-(5-methylthiazole-4-carboxamido)-7-oxohept-2-enoate] | 92 | –
15 | CCC(CC)CNC(=O)Cn1cccc(NC(=O)[C@H](CC/C=C/C(=O)OC)NC(=O)c2ccccc2N)c1=O [A70, (S,E)-Methyl 6-(2-aminobenzamido)-7-(1-(2-(2-ethylbutylamino)-2-oxoethyl)-2-oxo-1,2-dihydropyridin-3-ylamino)-7-oxohept-2-enoate 2,2,2-trifluoroacetate] | 81 | –
16 | CCOC(=O)/C=C/CC[C@H](NC(=O)c1ccoc1)C(=O)Nc1cccn(CC(=O)NCCC(C)C)c1=O [A11, (S,E)-Ethyl 6-(furan-3-carboxamido)-7-(1-(2-(isopentylamino)-2-oxoethyl)-2-oxo-1,2-dihydropyridin-3-ylamino)-7-oxohept-2-enoate] | 104 | –

From patent US9434763B2, “Derivatives of pyridinone as inhibitors for tissue transglutaminase” (ZEDIRA GMBH, priority 2012, dated 2016)
